Experimental data reported in patent US20250228239A1, “MOLECULES HAVING PESTICIDAL UTILITY, AND INTERMEDIATES, COMPOSITIONS, AND PROCESSES, RELATED THERETO” (priority 2024, published 2025).

Columns and labels:
[1] = test system: Beet Armyworm (Spodoptera exigua, LAPHEG); test: Bioassays on Beet Armyworm (BAW), 128-well diet tray assay; assay type: in vivo; details: Spodoptera exigua; Beet Armyworm; rating class; read-out: BAW
Method in brief: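 Larvae at second instar are exposed on dried, compound-treated diet (50 μg/cm^2, delivered in 90:10 acetone-water) in eight replicate wells. After five to seven days at 25° C., 14:10 light-dark, percent mortality in each well is scored and the eight wells averaged.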

[2] = test system: Cabbage Looper (Trichoplusia ni, TRIPNI); test: Bioassays on Cabbage Looper (CL), 128-well diet tray assay; assay type: in vivo; details: Trichoplusia ni; Cabbage Looper; rating class; read-out: CL
Method in brief: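 Percent mortality, averaged across eight replicate wells, after second-instar larvae (1–5 per well) fed for five to seven days on diet dosed at 50 μg/cm^2. Compound was applied in acetone-water 90:10 and dried; trays kept vented at 25° C under 14:10 photoperiod.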

Structure (SMILES) | pest or weed control at 50 µg/cm2 [1] | pest or weed control at 50 µg/cm2 [2]
O=C(Nc1cc(NC(=O)C(F)(F)F)c(F)cc1F)c1cc(NC(=O)[C@H]2[C@H](c3ccc(F)c(C(F)(F)F)c3)C2(Cl)Cl)cc(F)c1Cl [F1407, 2-Chloro-5-((1R,3R)-2,2-dichloro-3-(4-fluoro-3-(trifluoromethyl)phenyl)cyclopropane-1-carboxamido)-N-(2,4-difluoro-5-(2,2,2-trifluoroacetamido)phenyl)-3-fluorobenzamide] | 50 to 100% | 50 to 100%
O=C(Nc1cc(NC(=O)C(F)F)c(F)cc1F)c1cc(NC(=O)[C@H]2[C@H](c3cc(Cl)cc(Cl)c3)C2(Cl)Cl)cc(F)c1Cl [F1408, 2-Chloro-5-((1R,3R)-2,2-dichloro-3-(3,5-dichlorophenyl)cyclopropane-1-carboxamido)-N-(5-(2,2-difluoroacetamido)-2,4-difluorophenyl)-3-fluorobenzamide] | 50 to 100% | 50 to 100%
O=C(Nc1cc(NC(=O)C(F)(F)F)c(F)cc1F)c1cc(NC(=O)[C@H]2[C@H](c3cc(Cl)cc(Cl)c3)C2(Cl)Cl)cc(F)c1Cl [F1409, 2-Chloro-5-((1R,3R)-2,2-dichloro-3-(3,5-dichlorophenyl)cyclopropane-1-carboxamido)-N-(2,4-difluoro-5-(2,2,2-trifluoroacetamido)phenyl)-3-fluorobenzamide] | 50 to 100% | 50 to 100%
O=C(Nc1ccc(F)c(NC(=O)C(F)F)c1F)c1cc(NC(=O)[C@H]2[C@H](c3ccc(Cl)c(Br)c3)C2(Cl)Cl)ccc1Cl [F1411, 5-((1R,3R)-3-(3-Bromo-4-chlorophenyl)-2,2-dichlorocyclopropane-1-carboxamido)-2-chloro-N-(3-(2,2-difluoroacetamido)-2,4-difluorophenyl)benzamide] | 50 to 100% | 50 to 100%
CC(=O)Nc1c(Cl)ccc(NC(=O)c2cc(NC(=O)[C@H]3[C@H](c4ccc(F)c(C(F)(F)F)c4)C3(Cl)Cl)ccc2Cl)c1Cl [F1412, N-(3-Acetamido-2,4-dichlorophenyl)-2-chloro-5-((1R,3R)-2,2-dichloro-3-(4-fluoro-3-(trifluoromethyl)phenyl)cyclopropane-1-carboxamido)benzamide] | 50 to 100% | 50 to 100%
Cc1cc(NC(=O)[C@H]2[C@H](c3ccc(Cl)c(Cl)c3)C2(Cl)Cl)cc(C(=O)Nc2c(F)ccc(N)c2F)c1Cl [F1426, N-(3-Amino-2,6-difluorophenyl)-2-chloro-5-((1R,3R)-2,2-dichloro-3-(3,4-dichlorophenyl)cyclopropane-1-carboxamido)-3-methylbenzamide] | 50 to 100% | 50 to 100%
Cc1cc(NC(=O)[C@H]2[C@H](c3cc(Cl)c(Cl)c(Cl)c3)C2(Cl)Cl)cc(C(=O)Nc2c(F)ccc(N)c2F)c1Cl [F1427, N-(3-Amino-2,6-difluorophenyl)-2-chloro-5-((1R,3R)-2,2-dichloro-3-(3,4,5-trichlorophenyl)cyclopropane-1-carboxamido)-3-methylbenzamide] | 50 to 100% | 50 to 100%
Cc1cc(NC(=O)[C@H]2[C@H](c3ccc(F)c(C(F)(F)F)c3)C2(Cl)Cl)cc(C(=O)Nc2c(F)ccc(N)c2F)c1Cl [F1428, N-(3-Amino-2,6-difluorophenyl)-2-chloro-5-((1R,3R)-2,2-dichloro-3-(4-fluoro-3-(trifluoromethyl)phenyl)cyclopropane-1-carboxamido)-3-methylbenzamide] | 50 to 100% | 50 to 100%
Cc1cc(NC(=O)[C@H]2[C@H](c3ccc(Cl)c(Cl)c3)C2(Cl)Cl)cc(C(=O)Nc2c(F)ccc(NC(=O)C(F)F)c2F)c1Cl [F1429, 2-Chloro-5-((1R,3R)-2,2-dichloro-3-(3,4-dichlorophenyl)cyclopropane-1-carboxamido)-N-(3-(2,2-difluoroacetamido)-2,6-difluorophenyl)-3-methylbenzamide] | 50 to 100% | 50 to 100%
Cc1cc(NC(=O)[C@H]2[C@H](c3ccc(Cl)c(Cl)c3)C2(Cl)Cl)cc(C(=O)Nc2c(F)ccc(NC(=O)C(F)(F)F)c2F)c1Cl [F1430, 2-Chloro-5-((1R,3R)-2,2-dichloro-3-(3,4-dichlorophenyl)cyclopropane-1-carboxamido)-N-(2,6-difluoro-3-(2,2,2-trifluoroacetamido)phenyl)-3-methylbenzamide] | 50 to 100% | 50 to 100%
Cc1cc(NC(=O)[C@H]2[C@H](c3cc(Cl)c(Cl)c(Cl)c3)C2(Cl)Cl)cc(C(=O)Nc2c(F)ccc(NC(=O)C(F)F)c2F)c1Cl [F1431, 2-Chloro-5-((1R,3R)-2,2-dichloro-3-(3,4,5-trichlorophenyl)cyclopropane-1-carboxamido)-N-(3-(2,2-difluoroacetamido)-2,6-difluorophenyl)-3-methylbenzamide] | 50 to 100% | 50 to 100%
Cc1cc(NC(=O)[C@H]2[C@H](c3cc(Cl)c(Cl)c(Cl)c3)C2(Cl)Cl)cc(C(=O)Nc2c(F)ccc(NC(=O)C(F)(F)F)c2F)c1Cl [F1432, 2-Chloro-5-((1R,3R)-2,2-dichloro-3-(3,4,5-trichlorophenyl)cyclopropane-1-carboxamido)-N-(2,6-difluoro-3-(2,2,2-trifluoroacetamido)phenyl)-3-methylbenzamide] | 50 to 100% | 50 to 100%
CC(=O)Nc1c(F)ccc(NC(=O)c2cc(NC(=O)[C@H]3[C@H](c4cc(Cl)c(Cl)c(Cl)c4)C3(Cl)Cl)cc(F)c2F)c1F [F1433, N-(3-Acetamido-2,4-difluorophenyl)-5-((1R,3R)-2,2-dichloro-3-(3,4,5-trichlorophenyl)cyclopropane-1-carboxamido)-2,3-difluorobenzamide] | 50 to 100% | 50 to 100%
Cc1cc(NC(=O)[C@H]2[C@H](c3ccc(Cl)c(Cl)c3)C2(Cl)Cl)cc(C(=O)Nc2ccc(F)c(N)c2F)c1Cl [F1446, N-(3-Amino-2,4-difluorophenyl)-2-chloro-5-((1R,3R)-2,2-dichloro-3-(3,4-dichlorophenyl)cyclopropane-1-carboxamido)-3-methylbenzamide] | 50 to 100% | 50 to 100%
Cc1cc(NC(=O)[C@H]2[C@H](c3cc(Cl)c(Cl)c(Cl)c3)C2(Cl)Cl)cc(C(=O)Nc2ccc(F)c(N)c2F)c1Cl [F1449, N-(3-Amino-2,4-difluorophenyl)-2-chloro-5-((1R,3R)-2,2-dichloro-3-(3,4,5-trichlorophenyl)cyclopropane-1-carboxamido)-3-methylbenzamide] | 50 to 100% | 50 to 100%
Cc1cc(NC(=O)[C@H]2[C@H](c3ccc(F)c(C(F)(F)F)c3)C2(Cl)Cl)cc(C(=O)Nc2ccc(F)c(N)c2F)c1Cl [F1458, N-(3-Amino-2,4-difluorophenyl)-2-chloro-5-((1R,3R)-2,2-dichloro-3-(4-fluoro-3-(trifluoromethyl)phenyl)cyclopropane-1-carboxamido)-3-methylbenzamide] | 50 to 100% | 50 to 100%
Nc1c(F)ccc(NC(=O)c2cc(NC(=O)[C@H]3[C@H](c4ccc(Cl)c(Cl)c4)C3(Cl)Cl)ccc2F)c1F [F1459, N-(3-Amino-2,4-difluorophenyl)-5-((1R,3R)-2,2-dichloro-3-(3,4-dichlorophenyl)cyclopropane-1-carboxamido)-2-fluorobenzamide] | 50 to 100% | 50 to 100%
CN(C(=O)C(F)F)c1c(F)ccc(NC(=O)c2cc(NC(=O)[C@H]3[C@H](c4cc(Cl)cc(Cl)c4)C3(Cl)Cl)ccc2Cl)c1F [F1462, 2-Chloro-5-((1R,3R)-2,2-dichloro-3-(3,5-dichlorophenyl)cyclopropane-1-carboxamido)-N-(3-(2,2-difluoro-N-methylacetamido)-2,4-difluorophenyl)benzamide] | 50 to 100% | 50 to 100%
O=C(Nc1ccc(F)c(NC(=O)C(F)(F)C(F)(F)C(F)(F)F)c1F)c1cc(NC(=O)[C@H]2[C@H](c3ccc(Cl)c(Cl)c3)C2(Cl)Cl)ccc1Cl [F1463, 2-Chloro-5-((1R,3R)-2,2-dichloro-3-(3,4-dichlorophenyl)cyclopropane-1-carboxamido)-N-(2,4-difluoro-3-(2,2,3,3,4,4,4-heptafluorobutanamido)phenyl)benzamide] | 50 to 100% | 50 to 100%
O=C(Nc1ccc(F)cc1F)c1c(Cl)ccc(NC(=O)[C@H]2[C@H](c3ccc(F)c(Cl)c3)C2(Cl)Cl)c1F [F1464, 6-Chloro-3-((1R,3R)-2,2-dichloro-3-(3-chloro-4-fluorophenyl)cyclopropane-1-carboxamido)-N-(2,4-difluorophenyl)-2-fluorobenzamide] | 50 to 100% | 50 to 100%
Cc1cc(NC(=O)[C@H]2[C@H](c3ccc(F)c(C(F)(F)F)c3)C2(Cl)Cl)cc(C(=O)Nc2c(F)ccc(NC(=O)C(F)F)c2F)c1Cl [F1468, 2-Chloro-5-((1R,3R)-2,2-dichloro-3-(4-fluoro-3-(trifluoromethyl)phenyl)cyclopropane-1-carboxamido)-N-(3-(2,2-difluoroacetamido)-2,6-difluorophenyl)-3-methylbenzamide] | 50 to 100% | 50 to 100%
Cc1cc(NC(=O)[C@H]2[C@H](c3ccc(F)c(C(F)(F)F)c3)C2(Cl)Cl)cc(C(=O)Nc2c(F)ccc(NC(=O)C(F)(F)F)c2F)c1Cl [F1469, 2-Chloro-5-((1R,3R)-2,2-dichloro-3-(4-fluoro-3-(trifluoromethyl)phenyl)cyclopropane-1-carboxamido)-N-(2,6-difluoro-3-(2,2,2-trifluoroacetamido)phenyl)-3-methylbenzamide] | 50 to 100% | 50 to 100%
